According to US20100113473A1, “ARYL AMIDE COMPOUND AS AN ACETYL COENZYME A CARBOXYLASE INHIBITOR” (priority 2008, published 2010):

How the values were obtained:
[1] = target: T1, Human ACC1 (amino acids 1603-2383) (Homo sapiens, UniProt Q13085); assay: ThermoFluor measurement of compound binding to ACC1 CT domain; details: carboxyterminus (CT) domain, pH 7.0, read-out: ACC1 TF Kd
T1 construct: Human ACC1 (amino acids 1603-2383); 6His (N); FLAG (N); TEV cleavage site (N); made in house; host or cells: Sf9 insect cells (baculovirus)
Method: (§1) The 6His.FLAG.TEV Human ACC2 (amino acids 1685-2458) (Egea Biosciences, San Diego, Calif.) and 6His.FLAG. TEV. Human ACC1 (amino acids 1603-2383) (Egea Biosciences, San Diego, Calif.) genes were synthesized and subcloned into the pENTR11 vector. Transfection-grade DNA was purified using the QIAwell® Kit from Qiagen. The LR reaction was performed overnight and then transfected into Sf9 cells using a BaculoDirect® Baculovirus Expression System (Invitrogen). The P0 virus was collected 4 days post transfection and used for another round of virus amplification. The resulting P1 virus and cells were collected 3 days post-infection. […]
(§2) On-column cleavage of the histidine tag was performed by injecting 96 ug of TEV S219V protease/mg (of ACC2 CT. The product was incubated at 4° C. for 20 hours. The cleaved ACC2 was eluted in buffer A and loaded directly onto a HiLoad® 16/60 Superdex 200 column (GE Healthcare), preequilibrated with 25 mM Tris Buffer (at pH 8.0, 200 mM NaCl, 5% Glycerol, 5 mM DTT). Fractions containing ACC2 CT, assayed by SDS-PAGE, were pooled. For cocrystallization, the compound was added in a 1:2 molar ratio of protein:compound and incubated overnight at 4° C. The complex was concentrated to a final protein concentration of 7 mg/mL using an 30 kDa cut-off Ultrafree® membrane (Millipore, Billerica, Mass.) and was then ready for crystallization. […]

[2] = target: T2, Human ACC2 (amino acids 1685-2458) (Homo sapiens, UniProt O00763); assay: ThermoFluor measurement of compound binding to ACC2 CT domain; details: carboxyterminus (CT) domain, pH 7.0, read-out: ACC2 TF Kd
T2 construct: Human ACC2 (amino acids 1685-2458); 6His (N, cleaved yes); FLAG (N, cleaved yes); TEV cleavage site (N, cleaved yes); made in house; host or cells: Sf9 insect cells (baculovirus)
Method: as §1, §2

[3] = test system: ApoB secretion from HepG2 cells; assay: ApoB secretion from HepG2 cells; format: cell-based; details: Homo sapiens, 24 hours, ApoB in medium by ELISA
Method: HepG2 cells (American Type Culture Collection: Catalog No. #HB-8065) are maintained in Growth Media consisting of DMEM with 4.5 g/L glucose (Cellgro: Catalog No. #10-013-CV), supplemented with 10% fetal bovine serum (FBS) (Cellgro: Catalog No. #35-011-CV) and 100 U/mL each penicillin and streptomycin (Cellgro: Catalog No. #30-002-Cl). For the assay, cells are plated @ ˜10,000 cells/well in white, clear-bottom, 96-well plates (Costar: Catalog No. #3610) and incubated in a humidified 5% CO2 atmosphere at 37° C. The next day, Growth Media is replaced with RPMI 1640 without glucose (Cellgro: Catalog No. #10-043-CV), supplemented with 10% charcoal/dextran treated FBS (Hyclone: Catalog No. #SH30068.02) and 100 U/mL each penicillin and streptomycin (starvation media). The cells are maintained overnight in a humidified 5% CO2 atmosphere at 37° C. […] Twenty-four hours later, the growth medium is collected and assessed for ApoB content. […]
The samples are removed and the plate is washed again 3× with 200 μL PBST, then 100 μL of 1/10,000 HRP-conjugated, affinity-purified polyclonal sheep anti-human ApoB detection antibody (BioDesign International Product No. # K90086P) is added to each well and the plate is incubated for one hour at 37° C. […] The plate is read for one second in an Orion Microplate Luminometer®. […]

T2 sequence (O00763 1685-2458): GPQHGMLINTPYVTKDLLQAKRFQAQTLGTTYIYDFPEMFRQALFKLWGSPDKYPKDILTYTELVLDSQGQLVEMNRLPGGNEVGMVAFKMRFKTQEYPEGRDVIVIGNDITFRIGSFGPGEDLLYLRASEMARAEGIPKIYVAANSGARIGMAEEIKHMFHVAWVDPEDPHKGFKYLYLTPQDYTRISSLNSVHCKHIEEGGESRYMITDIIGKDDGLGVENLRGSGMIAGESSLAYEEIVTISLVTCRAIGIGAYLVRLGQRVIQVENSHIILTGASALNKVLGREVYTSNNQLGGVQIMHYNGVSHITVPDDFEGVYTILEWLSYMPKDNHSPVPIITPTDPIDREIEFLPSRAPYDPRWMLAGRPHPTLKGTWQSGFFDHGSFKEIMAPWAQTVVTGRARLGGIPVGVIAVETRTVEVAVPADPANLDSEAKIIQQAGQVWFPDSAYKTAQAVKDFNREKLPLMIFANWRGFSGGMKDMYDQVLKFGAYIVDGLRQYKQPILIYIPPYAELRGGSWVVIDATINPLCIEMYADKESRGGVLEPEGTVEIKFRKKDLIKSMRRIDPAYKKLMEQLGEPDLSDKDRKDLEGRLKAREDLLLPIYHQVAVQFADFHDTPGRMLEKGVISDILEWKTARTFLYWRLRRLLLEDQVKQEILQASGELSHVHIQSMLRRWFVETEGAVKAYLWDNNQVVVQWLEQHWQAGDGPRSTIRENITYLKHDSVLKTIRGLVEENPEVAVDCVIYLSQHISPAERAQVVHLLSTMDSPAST

Cc1ccc2nc(-c3ccncc3)cc(C(=O)N3CCN(Cc4ccc5c(c4)OCCO5)CC3)c2c1 [Cpd 1, [4-(2,3-Dihydro-benzo[1,4]dioxin-6-ylmethyl)-piperazin-1-yl]-(6-methyl-2-pyridin-4-yl-quinolin-4-yl)methanone]
Kd [1]: 970 nM | Kd [2]: 400 nM | IC50 [3]: 8000 nM
